Measurements taken from ChEMBL document CHEMBL1201862, “PubChem BioAssay data set” (2004).
The source made the active and inactive calls.

Experiments:
HeLa = assay: HeLa cell cytotoxicity, dose response, cytotoxicity control for MITF activator project, CellTiter-Glo luminescence, cherry-pick samples (AID 540259); type: functional, cell-based; conditions: Homo sapiens
[1] = C. albicans growth with fluconazole, confirmation, fluorescence, retest (AID 2467); type: functional, cell-based
[2] = target: T1, Serine/threonine-protein phosphatase (Candida dubliniensis (strain CD36 / CBS 7987 / NCPF 3949 / NRRLY-17841) (Yeast), UniProt B9W6M3); assay: calcineurin pathway inhibitors in yeast reporter, dose response, S. cerevisiae, CDRE-lacZ, luminescence, secondary (AID 2388); type: functional, cell-based;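 also: yeast reporter cells carrying a calcineurin-responsive lacZ construct stimulated with calcium chloride; luminescent beta-galactosidase reporter signal in whole cells rather than isolated phosphatase activity; potency for inhibition where a drop in reporter signal means calcineurin blockade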
T1 sequence (B9W6M3 whole entry): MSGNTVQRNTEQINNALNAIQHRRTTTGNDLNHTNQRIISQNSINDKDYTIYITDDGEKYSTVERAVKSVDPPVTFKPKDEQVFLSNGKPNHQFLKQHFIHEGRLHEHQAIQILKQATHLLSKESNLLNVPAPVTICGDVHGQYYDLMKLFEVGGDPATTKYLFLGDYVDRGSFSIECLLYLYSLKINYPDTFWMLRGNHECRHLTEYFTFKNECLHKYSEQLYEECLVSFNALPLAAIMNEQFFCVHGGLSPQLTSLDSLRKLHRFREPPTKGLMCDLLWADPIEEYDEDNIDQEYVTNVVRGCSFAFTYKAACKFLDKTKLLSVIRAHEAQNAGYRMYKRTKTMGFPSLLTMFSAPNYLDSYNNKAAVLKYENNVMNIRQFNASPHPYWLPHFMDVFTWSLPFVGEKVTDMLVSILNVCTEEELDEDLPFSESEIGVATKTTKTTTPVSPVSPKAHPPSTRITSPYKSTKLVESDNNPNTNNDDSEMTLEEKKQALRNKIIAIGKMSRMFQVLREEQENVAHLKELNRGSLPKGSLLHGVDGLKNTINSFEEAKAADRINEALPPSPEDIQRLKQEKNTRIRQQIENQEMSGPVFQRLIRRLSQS

Galanin receptor type 3 = target: T2, Galanin receptor type 3 (Homo sapiens, UniProt O60755); assay: Fluorescence-based cell-based primary high throughput dose response assay to identify antagonists of the Galanin Receptor 3 (GalR3).; type: functional
T2 sequence (O60755 whole entry): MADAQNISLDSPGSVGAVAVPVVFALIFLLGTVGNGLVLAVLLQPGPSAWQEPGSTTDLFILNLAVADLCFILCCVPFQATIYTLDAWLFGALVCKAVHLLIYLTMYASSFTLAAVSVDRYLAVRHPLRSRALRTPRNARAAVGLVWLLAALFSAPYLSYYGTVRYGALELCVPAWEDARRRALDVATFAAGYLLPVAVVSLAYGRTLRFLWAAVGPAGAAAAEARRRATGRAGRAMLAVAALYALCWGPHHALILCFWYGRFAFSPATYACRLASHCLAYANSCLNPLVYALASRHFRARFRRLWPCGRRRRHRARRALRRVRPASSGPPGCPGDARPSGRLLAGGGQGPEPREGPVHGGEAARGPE

[3] = Luminescence Cell-Based Dose Response HTS to Identify Inhibitors of 5'UTR Stem-Loop Driven Prion Protein mRNA Translation in H4 Neuroglioblastoma Cells. [Related pubchem assays: 1827 (Project Summary), 1813 (Primary HTS)]; type: functional
[4] = target: COUP transcription factor 2 (Homo sapiens, UniProt P24468); assay: Luminescence-based cell-based high throughput dose response assay to identify inhibitors of COUP-TFII (NR2F2).; type: functional;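 also: HEK293 cells transiently cotransfected with COUP-TFII expression vector and reporter; luciferase reporter luminescence driven by COUP-TFII from the pX2-168 reporter plasmid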
[5] = cytotoxicity in HEK-293T NF-kB-Luc cells, dose response, cytotoxicity control for B/T-cell NF-kB inhibitor project, cell-based, uHTS hits (AID 489019); type: functional;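 also: IC50 reflects cytotoxicity as loss of cell viability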
Jurkat = assay: antigen receptor-induced NF-kB inhibitors, dose response, Jurkat, luciferase reporter, luminescence, B- and T-cell (AID 489004); type: functional, cell-based; conditions: Homo sapiens;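 also: NF-kB luciferase reporter Jurkat cells stimulated with PMA plus ionomycin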
[6] = control 3'UTR Renilla luciferase suppression, dose response, counter-screen for Shn3 inhibitor project, cell-based, Clone20-Shn3RL, cherry-picked (AID 624133); type: functional
[7] = Shn3 3'UTR reporter inhibitors, dose response, cell-based, Clone20 osteoblasts, firefly luciferase, cherry-picked (AID 624132); type: functional;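 also: firefly luciferase luminescence from reporter carrying the Shn3 3'UTR in osteoblasts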
[8] = HepG2 cell cytotoxicity, dose response, cytotoxicity control for Shn3 inhibitor project, CellTiter-Glo, cherry-picked (AID 624134); type: functional, cell-based
cells = type: functional, cell-based; conditions: HEK-CNG
[9] = inhibitors of SNCA 5'UTR-driven reporter translation, confirmation, H4 neuroglioma cells, luminescence (AID 1988); type: functional, cell-based
INS1 = assay: beta cell apoptosis inhibitors, cytokine rescue, dose response, luminescence, retest (AID 449756); type: functional, cell-based; conditions: Rattus norvegicus;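 also: cell death triggered by IL-1 beta plus TNF-alpha plus IFN-gamma mixture; protective hits raise ATP signal compared with cytokine alone wells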
[10] = NIH-3T3 fibroblast cytotoxicity, dose response, cytotoxicity control, cell-based, fluorescence, Alamar Blue, secondary assay (AID 2327); type: functional;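 also: NIH-3T3 mouse fibroblasts cultured with fluconazole at 8 µg/mL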
[11] = target: ATP-dependent molecular chaperone HSP82 (Candida albicans (strain WO-1) (Yeast), UniProt C4YTQ8); assay: loss of DOC-induced GRE-beta-galactosidase reporter signal, dose response, Hsp90 inhibitor project, S. cerevisiae, luminescence (AID 2400); type: functional, cell-based;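 also: beta-galactosidase luminescence from glucocorticoid response element reporter as proxy for Hsp90 function; inhibitor potency where signal loss means Hsp90 inhibition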
[12] = inhibitors of firefly luciferase expression or activity, dose response, H4 neuroglioma cells, luminescence (AID 1990); type: functional, cell-based
Vero [13] = assay: cells; type: functional, cell-based; conditions: Chlorocebus sabaeus
Vero [14] = assay: cells; type: functional; conditions: Chlorocebus sabaeus
[15] = target: 5-hydroxytryptamine receptor 5A (Homo sapiens, UniProt P47898); assay: Counterscreen for agonists of OPRM1-OPRD1 heterodimerization: luminescence-based cell-based high throughput dose response assay to identify agonists of 5-hydroxytryptamine (serotonin) 5A receptor (HTR5A). [Related pubchem assays (depositor defined):AID504326, AID504355, AID504692, AID504904, AID504905]; type: functional
Mu-type opioid receptor = Mu-type opioid receptor (Homo sapiens, UniProt P35372); assay: (§1) Counterscreen for agonists of heterodimerization of the mu 1 (OPRM1) and delta 1 (OPRD1) opioid receptors: Luminescence-based cell-based high throughput dose response assay to identify agonists of OPRM1 homodimerization.; type: functional
[16] = target: Opioid receptors; mu & delta (Homo sapiens, UniProt P41143+P35372); assay: agonists of MOR-DOR heterodimerization, dose response, cell-based, luminescence (AID 588407); type: functional
[17] = target: Delta-type opioid receptor (Homo sapiens, UniProt P41143); assay: as §1, with “of OPRD1” for “of OPRM1”, “homodimerization. [Related pubchem assays (depositor defined):AID504326, AID504355, AID504692, AID504904, AID504905]” for “homodimerization.”; type: functional
BJ [18] = assay: cells; type: functional, cell-based; conditions: Homo sapiens
[19] = target: Heat shock protein HSP 90-alpha (Homo sapiens, UniProt P07900); type: functional, organism-based
NS3 = NS3 (Hepatitis C virus, UniProt A3EZJ3); assay: PubChem AID 2173; set-up: species or system Hepacivirus hominis
BJ [20] = assay: cytotoxicity toward BJ-TERT fibroblasts, dose response, cell-based, RAS-independent, luminescence (AID 1933); type: functional; conditions: Homo sapiens
Streptococcus = assay: Group A Streptococcus viability loss, dose response, counter-screen for streptokinase expression inhibitor project, luminescence, BacTiterGlo (AID 1915); type: functional, organism-based;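 also: potency for reduction of bacterial viability or growth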
[21] = target: T3, Heat shock factor protein 1 (Mus musculus, UniProt P38532); assay: HSF1 potentiators in luciferase reporter cells, confirmation, cell-based, NIH3T3, luminescence, dose retest (AID 435004); type: functional;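 also: stress induced by proteasome inhibitor MG132 added 30 min after compound; luciferase reporter driven by HSF1 response element in NIH3T3 cells; actives raise luminescence as potentiators of the MG132 stress response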
T3 sequence (P38532 whole entry): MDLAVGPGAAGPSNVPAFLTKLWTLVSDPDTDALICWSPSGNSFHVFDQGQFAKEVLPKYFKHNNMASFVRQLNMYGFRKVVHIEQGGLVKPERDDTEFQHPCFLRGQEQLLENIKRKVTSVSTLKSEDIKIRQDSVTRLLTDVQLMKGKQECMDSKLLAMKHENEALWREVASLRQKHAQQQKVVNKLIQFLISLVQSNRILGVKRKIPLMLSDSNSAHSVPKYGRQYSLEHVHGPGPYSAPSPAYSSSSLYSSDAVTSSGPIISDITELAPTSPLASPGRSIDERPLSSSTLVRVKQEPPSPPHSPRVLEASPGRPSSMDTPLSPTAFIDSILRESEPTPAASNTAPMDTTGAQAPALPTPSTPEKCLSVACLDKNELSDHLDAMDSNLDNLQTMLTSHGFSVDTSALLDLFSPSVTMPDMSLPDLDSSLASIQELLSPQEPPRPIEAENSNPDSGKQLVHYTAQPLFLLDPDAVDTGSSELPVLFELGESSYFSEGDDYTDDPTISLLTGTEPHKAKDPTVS

[22] = target: T1, Serine/threonine-protein phosphatase; assay: Fluorescence Cell-Based Secondary Assay to Identify Inhibitors of Calcineurin. [Related pubchem assays (depositor defined):AID1979, AID2007]; type: functional
[23] = cytotoxicity toward DRD oncogenic fibroblasts, dose response, cell-based, non-viral oncogenic, luminescence (AID 1934); type: functional; conditions: Homo sapiens
BJ [24] = assay: cytotoxicity toward BJ-TERT-LT-ST fibroblasts, dose response, cell-based, RAS-independent, luminescence (AID 1935); type: functional; conditions: Homo sapiens;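 also: BJ fibroblasts immortalized with TERT plus LT and ST oncogenes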
[25] = test system: Streptococcus sp. 'group A'; assay: growth inhibition of control SK(-) GAS strain, dose response, counter-screen for streptokinase expression inhibitor project, luminescence, kanamycin, BacTiterGlo, confirmation (AID 1900); type: functional, organism-based
Streptokinase A = target: T4, Streptokinase A (Streptococcus pyogenes serotype M1, UniProt P10520); assay: S. pyogenes streptokinase expression inhibitors, potency, dose response, plasminogen activation absorbance, OD405 (AID 1914); type: functional, Streptococcus pyogenes M1 GAS;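 also: secreted streptokinase activity via plasminogen activation per viability signal from cell pellet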
T4 sequence (P10520 whole entry): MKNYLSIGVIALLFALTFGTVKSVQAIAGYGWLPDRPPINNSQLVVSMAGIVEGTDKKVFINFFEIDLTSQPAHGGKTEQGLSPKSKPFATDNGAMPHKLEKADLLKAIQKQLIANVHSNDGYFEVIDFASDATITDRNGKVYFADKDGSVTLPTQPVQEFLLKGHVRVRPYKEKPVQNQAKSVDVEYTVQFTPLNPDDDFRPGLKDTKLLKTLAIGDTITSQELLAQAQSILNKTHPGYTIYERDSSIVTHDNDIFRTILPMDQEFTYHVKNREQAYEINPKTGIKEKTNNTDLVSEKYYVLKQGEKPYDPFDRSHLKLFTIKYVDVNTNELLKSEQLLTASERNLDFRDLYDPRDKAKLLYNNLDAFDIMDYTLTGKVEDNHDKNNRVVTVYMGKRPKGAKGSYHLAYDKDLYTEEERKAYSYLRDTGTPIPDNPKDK

[26] = inhibitors of intracellular T. cruzi replication, confirmation, NIH3T3 host cells, beta-gal luminescence (AID 2044); type: functional, cell-based;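 also: intracellular parasites grown in NIH/3T3 mouse fibroblasts as host cells; luminescent beta-galactosidase reporter signal from transgenic T. cruzi replicating inside host cells; inhibitors lower the luminescence signal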
[27] = cytotoxicity toward NIH3T3 fibroblasts, dose response, counter-screen, cell-based, ATP luminescence, mouse fibroblasts (AID 2010); type: functional;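 also: cells exposed to compound for about 90 hours before reading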

Sequence of ATP-dependent molecular chaperone HSP82 (C4YTQ8 whole entry): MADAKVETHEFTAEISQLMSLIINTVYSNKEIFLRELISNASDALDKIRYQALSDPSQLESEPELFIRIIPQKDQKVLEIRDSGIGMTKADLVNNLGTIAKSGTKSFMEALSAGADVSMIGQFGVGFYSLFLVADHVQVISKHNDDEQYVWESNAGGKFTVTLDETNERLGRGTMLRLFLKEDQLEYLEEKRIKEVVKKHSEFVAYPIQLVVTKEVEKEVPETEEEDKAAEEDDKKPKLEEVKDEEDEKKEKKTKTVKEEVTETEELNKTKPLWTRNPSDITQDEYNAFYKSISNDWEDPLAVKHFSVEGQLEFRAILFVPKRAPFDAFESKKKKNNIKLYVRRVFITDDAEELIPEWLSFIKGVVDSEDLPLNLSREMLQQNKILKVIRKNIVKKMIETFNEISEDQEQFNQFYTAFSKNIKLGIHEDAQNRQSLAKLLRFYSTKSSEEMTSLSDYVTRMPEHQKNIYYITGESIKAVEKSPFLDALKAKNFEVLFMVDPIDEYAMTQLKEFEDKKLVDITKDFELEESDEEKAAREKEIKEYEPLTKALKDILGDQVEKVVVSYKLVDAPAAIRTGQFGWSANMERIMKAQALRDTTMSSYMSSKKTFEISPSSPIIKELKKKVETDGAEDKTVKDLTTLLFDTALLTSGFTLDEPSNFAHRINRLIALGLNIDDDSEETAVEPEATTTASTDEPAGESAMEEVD
Sequence of NS3 (A3EZJ3 whole entry): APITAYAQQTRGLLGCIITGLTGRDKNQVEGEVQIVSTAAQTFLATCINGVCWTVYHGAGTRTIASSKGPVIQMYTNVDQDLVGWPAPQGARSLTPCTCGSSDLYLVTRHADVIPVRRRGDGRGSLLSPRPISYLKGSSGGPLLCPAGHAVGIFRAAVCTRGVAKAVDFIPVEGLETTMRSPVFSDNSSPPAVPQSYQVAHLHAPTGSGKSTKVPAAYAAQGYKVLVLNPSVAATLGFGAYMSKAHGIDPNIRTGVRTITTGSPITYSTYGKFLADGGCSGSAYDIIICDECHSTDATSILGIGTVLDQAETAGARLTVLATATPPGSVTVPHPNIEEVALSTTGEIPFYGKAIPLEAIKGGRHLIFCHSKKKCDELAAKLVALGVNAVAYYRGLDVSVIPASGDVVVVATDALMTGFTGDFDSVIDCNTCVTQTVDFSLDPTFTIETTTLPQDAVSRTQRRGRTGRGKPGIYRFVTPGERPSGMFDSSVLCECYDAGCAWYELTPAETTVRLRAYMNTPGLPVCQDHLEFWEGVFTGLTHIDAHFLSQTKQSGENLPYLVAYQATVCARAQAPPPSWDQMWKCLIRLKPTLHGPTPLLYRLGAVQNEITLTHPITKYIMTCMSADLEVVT
Sequence of 5-hydroxytryptamine receptor 5A (P47898 whole entry): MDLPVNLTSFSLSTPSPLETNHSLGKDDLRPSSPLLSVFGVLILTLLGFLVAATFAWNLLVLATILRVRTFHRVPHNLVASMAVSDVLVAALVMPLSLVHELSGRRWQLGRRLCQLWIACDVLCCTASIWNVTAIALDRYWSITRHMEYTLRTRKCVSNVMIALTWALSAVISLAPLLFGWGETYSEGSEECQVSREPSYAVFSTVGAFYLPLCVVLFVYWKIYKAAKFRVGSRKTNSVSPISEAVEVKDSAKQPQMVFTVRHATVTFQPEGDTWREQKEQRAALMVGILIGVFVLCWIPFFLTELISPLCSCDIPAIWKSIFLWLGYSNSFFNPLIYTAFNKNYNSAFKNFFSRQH
Sequence of Delta-type opioid receptor (P41143 whole entry): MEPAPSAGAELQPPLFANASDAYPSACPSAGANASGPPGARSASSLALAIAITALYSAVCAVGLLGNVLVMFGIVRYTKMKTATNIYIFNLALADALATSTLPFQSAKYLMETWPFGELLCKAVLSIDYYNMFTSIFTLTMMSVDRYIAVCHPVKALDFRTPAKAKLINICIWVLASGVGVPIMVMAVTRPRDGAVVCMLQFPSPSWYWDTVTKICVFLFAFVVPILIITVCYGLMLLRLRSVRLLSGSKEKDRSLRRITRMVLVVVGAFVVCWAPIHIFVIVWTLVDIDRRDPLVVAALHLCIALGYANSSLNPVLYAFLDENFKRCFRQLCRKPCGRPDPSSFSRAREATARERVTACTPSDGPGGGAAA
Sequence of Mu-type opioid receptor (P35372 whole entry): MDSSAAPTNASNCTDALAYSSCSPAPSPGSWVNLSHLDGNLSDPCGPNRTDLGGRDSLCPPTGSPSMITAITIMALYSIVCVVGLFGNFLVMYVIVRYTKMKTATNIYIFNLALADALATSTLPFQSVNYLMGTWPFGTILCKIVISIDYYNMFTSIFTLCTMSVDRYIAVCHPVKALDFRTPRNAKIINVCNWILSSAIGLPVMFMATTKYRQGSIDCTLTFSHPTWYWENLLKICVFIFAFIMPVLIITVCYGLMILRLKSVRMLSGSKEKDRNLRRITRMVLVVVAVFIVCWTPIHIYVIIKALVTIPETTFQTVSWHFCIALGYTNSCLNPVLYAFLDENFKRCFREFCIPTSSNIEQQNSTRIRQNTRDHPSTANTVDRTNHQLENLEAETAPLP
Sequence of COUP transcription factor 2 (P24468 whole entry): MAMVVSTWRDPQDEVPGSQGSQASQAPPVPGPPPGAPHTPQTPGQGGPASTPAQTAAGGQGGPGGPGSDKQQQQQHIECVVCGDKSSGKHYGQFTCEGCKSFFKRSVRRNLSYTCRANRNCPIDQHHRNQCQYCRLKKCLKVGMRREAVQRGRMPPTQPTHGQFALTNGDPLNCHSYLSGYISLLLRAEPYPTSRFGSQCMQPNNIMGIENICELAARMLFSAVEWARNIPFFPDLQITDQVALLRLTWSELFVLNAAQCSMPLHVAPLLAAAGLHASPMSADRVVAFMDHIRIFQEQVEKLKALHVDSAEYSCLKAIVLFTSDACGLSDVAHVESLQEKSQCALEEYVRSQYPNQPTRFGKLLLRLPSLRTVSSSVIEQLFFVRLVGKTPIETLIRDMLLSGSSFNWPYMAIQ

COc1ccc(C(S)=Nc2ccc(C)cc2)cc1
AC50 (HeLa): 194 µM (active)

COc1ccc(CCNc2ncnc3sc(C)cc23)cc1OC
EC50 [1]: 0.767 µM (active) | EC50 [2]: > 180 µM (inactive) | IC50 (Galanin receptor type 3): 0.43 µM (active) | EC50 [3]: > 120 µM (not active) | IC50 [4]: 2.21 µM (active) | IC50 [5]: > 80 µM (inactive) | IC50 (Jurkat): 45.3 µM (inactive) | AC50 [6]: 0.796 µM (active) | AC50 [7]: < 0.26 µM (active) | AC50 [8]: 0.739 µM (active) | EC50 (cells): > 29.9 µM (inactive) | EC50 [9]: > 120 µM (not active) | AC50 (INS1): 0.902 µM (active) | EC50 [10]: > 150 µM (inactive) | EC50 [11]: > 150 µM (inactive) | EC50 [12]: > 120 µM (not active)

CO[C@H]1[C@H](O)[C@H](O[C@H]2CC[C@@]3(C=O)[C@H](CC[C@@H]4[C@@H]3CC[C@]3(C)[C@@H](C5=CC(=O)OC5)CC[C@]43O)C2)O[C@@H](C)[C@@H]1O [PERUVOSIDE]
IC50 (Vero [13]): < 0.05 µM (active) | CC50 (Vero [14]): < 0.05 µM (active) | EC50 [15]: > 92.5 µM (inactive) | EC50 (Mu-type opioid receptor): > 92.5 µM (inactive) | EC50 [16]: > 0.1268 µM | EC50 [17]: > 92.5 µM (inactive)

Cc1ccc(/C=C/C(=O)c2ccccc(=O)c2O)cc1C
EC50 (BJ [18]): 24.9 µM (active) | AC50 [19]: 4.22 µM (active) | EC50 [1]: 0.851 µM (active) | EC50 [2]: 5.55 µM (active) | IC50 (NS3): 2.63 µM (active) | EC50 (BJ [20]): 23.7 µM (active) | EC50 (Streptococcus): 11.5 µM (active) | EC50 [21]: 40 µM (active) | EC50 [22]: 12.9 µM (active) | EC50 [23]: 77.7 µM (active) | EC50 (BJ [24]): > 150 µM (not active) | EC50 [25]: 5.05 µM (active) | EC50 [10]: > 160 µM (inconclusive) | EC50 [11]: 2.09 µM (active) | EC50 (Streptokinase A): > 150 µM (not active) | EC50 [26]: 1.83 µM (active) | EC50 [27]: 17.5 µM (active)
